Like-named read-outs stand apart in the source and are kept apart here. Blank lines part the entries; values can stand above or below the molecule they belong to.
Target: T1, 5-HT1 -like receptor (Oryctolagus cuniculus, UniProt P49144)
T1 construct: contraction of the saphenous vein of New Zealand White rabbits; from tissue; host or cells: saphenous vein of New Zealand White rabbits
Test: agonist-mediated contraction of the saphenous vein of New Zealand White rabbits
Assay type: cell-based
Description: The activity of test compounds as agonists of the 5-HT1 -like receptor was measured in terms of their ability to mediate contraction of the saphenous vein of New Zealand White rabbits, using the procedure described in Arch. Pharm., 1990, 342, 111. Agonist potencies were calculated as -log10 EC50 (pEC50) values, from plots of percentage 5-HT (1 μm) response against the concentration of the agonist.

[1] = rabbit saphenous vein contraction, from plots of percentage 5-HT (1 μm) response against agonist concentration

T1 sequence (P49144 whole entry): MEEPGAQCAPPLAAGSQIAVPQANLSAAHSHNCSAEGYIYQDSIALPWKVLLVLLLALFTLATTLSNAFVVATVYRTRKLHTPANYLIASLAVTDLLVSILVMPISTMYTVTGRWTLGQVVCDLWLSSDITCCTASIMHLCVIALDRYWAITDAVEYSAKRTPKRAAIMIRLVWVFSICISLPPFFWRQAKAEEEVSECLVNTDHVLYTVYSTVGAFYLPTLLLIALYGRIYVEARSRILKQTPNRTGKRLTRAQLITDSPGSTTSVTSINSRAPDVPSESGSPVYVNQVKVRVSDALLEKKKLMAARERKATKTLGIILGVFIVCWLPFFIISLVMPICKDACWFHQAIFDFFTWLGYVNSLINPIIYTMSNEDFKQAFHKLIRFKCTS

SMILES: NCCc1c[nH]c2ccc(-c3nc(Cc4ccccc4)no3)cc12 [Example 1, 2-[5-(5-(3-Benzyl-1,2,4-oxadiazol)-yl)-1H-indol-3-yl]ethylamine]
EC50: ≤ 10 µM

SMILES: NCCc1c[nH]c2ccc(Cc3nc(Cc4ccccc4)no3)cc12 [Example 4]
EC50: ≤ 10 µM

SMILES: NCCc1c[nH]c2ccc(Cc3nc(N)no3)cc12 [Example 6]
EC50: ≤ 10 µM

SMILES: CC(=O)Nc1ccc(Cc2noc(-c3ccc4[nH]cc(CCN(C)C)c4c3)n2)cc1 [Example 27, N,N-Dimethyl-2-[5-[5-(3-(4-Acetylaminobenzyl)-1,2,4-oxadiazol)yl]-1H-indol-3-yl]ethylamine]
EC50: ≤ 10 µM

SMILES: CN(C)CCc1c[nH]c2ccc(-c3nc(Cc4ccc(NS(C)(=O)=O)cc4)no3)cc12 [Example 28, N,N-Dimethyl-2-[5-[5-(3-(4-Methylsulphonylaminobenzyl)-1,2,4-oxadiazol)yl]-1H-indol-3-yl]ethyl amine]
agonist potency -log10 EC50 (pEC50) [1]: not less than 5.0

SMILES: CN(C)CCc1c[nH]c2ccc(Cc3nc(N)no3)cc12 [Example 30, N,N-Dimethyl-2-[5-[5-(3-Amino-1,2,4-oxadiazol)ylmethyl]-1H-indol-3-yl]ethylamine]
EC50: ≤ 10 µM

SMILES: NCCc1c[nH]c2ccc(-c3nc(Cc4ccc(NC(N)=O)cc4)no3)cc12 [Example 44, 2-[5-(5-(3-(4-Carbamoylaminobenzyl)-1,2,4-oxadiazol)yl)-1H-indol-3-yl]ethylamine]
EC50: ≤ 10 µM

SMILES: NCCc1c[nH]c2ccc(-c3nc(N)no3)cc12 [Example 45, 2-[5-(5-(3-Amino-1,2,4-oxadiazol)-yl)-1H-indol-3-yl]ethylamine]
EC50: ≤ 10 µM

SMILES: CN(C)CCc1c[nH]c2ccc(-c3nc(N)no3)cc12 [Example 49, N,N-Dimethyl-2-[5-(5-(3-amino-1,2,4-oxadiazol)yl)-1H-indol-3yl]ethylamine]
EC50: ≤ 10 µM

SMILES: CN(C)CCc1c[nH]c2ccc(-c3nc(Cc4ccc(NC(N)=O)cc4)no3)cc12 [Example 52, N,N-Dimethyl-2[5-(5-(3-(4-carbamoylaminobenzyl)-1,2,4-oxadiazol)yl)-1H-indol-3-yl]ethylamine]
EC50: ≤ 10 µM

SMILES: CN(C)CCc1c[nH]c2ccc(-c3nc(CCNC(=O)OC(C)(C)C)no3)cc12 [Example 53, N,N-dimethyl-2-[5-(5-(3-(2-t-butyloxycarbonylamino)ethyl-1,2,4-oxadiazol)yl)-1H-indol-3-yl]ethylamine]
EC50: ≤ 10 µM

SMILES: CN(C)CCc1c[nH]c2ccc(-c3nc(CCNS(C)(=O)=O)no3)cc12 [Example 56, N,N-dimethyl-2-[5-(5-(3-(2-methylsulphonylamino)ethyl-1,2,4-oxadiazol)yl)-1H-indol-3-yl]ethylamine]
EC50: ≤ 10 µM

SMILES: CN(C)CCc1c[nH]c2ccc(CCc3nc(N)no3)cc12 [Example 61, N,N-Dimethyl-2-[5-(2-(5-(3-amino-1,2,4-oxadiazol)yl)ethyl)-1H-indol-3-yl]ethylamine]
agonist potency -log10 EC50 (pEC50) [1]: not less than 5.0

SMILES: CNS(=O)(=O)c1ccc(Cc2noc(Cc3ccc4[nH]cc(CCN(C)C)c4c3)n2)cc1 [Example 65, N,N-Dimethyl-2-[5-(5-(3-(4-methylaminosulphonylbenzyl)-1,2,4-oxadiazol)ylmethyl)-1H-indol-3-yl]ethylamine]
EC50: ≤ 10 µM

SMILES: CN(C)CCc1c[nH]c2ccc(Cc3nc(CNC(=O)c4ccccc4)no3)cc12 [Example 88, N,N-Dimethyl-2-[5-(5-(3-phenylcarboxamidomethyl-1,2,4-oxadiazol)ylmethyl)-1H-indol-3-yl]ethylamine]
EC50: ≤ 10 µM

SMILES: CN(C)CCc1c[nH]c2ccc(Cc3nc(N4CCN(C(=O)OC(C)(C)C)CC4)no3)cc12 [Example 93, N,N-Dimethyl-2-[5-(5-(3-(4-^t-butyloxycarbonyl)piperazine-1,4-yl-1,2,4-oxadiazol)ylmethyl)-1H-indol-3-yl]ethylamine]
EC50: ≤ 10 µM

EC50 (rabbit saphenous vein contraction, from plots of percentage 5-HT (1 μm) response against agonist concentration, read-out: agonist potency -log10 EC50 (pEC50) (converted)): ≤ 10 µM
SMILES: CN1CCC(c2c[nH]c3ccc(Cc4nc(N)no4)cc23)CC1 [Example 110, 4-[5-(3-Amino-1,2,4-oxadiazol-5-ylmethyl)-1H-indol-3-yl]N-methylpiperidine]

Reference: patent publication US5317103A, “Indole-substituted five-membered heteroaromatic compounds as 5-HT1 agonists” (Merck Sharp & Dohme Limited, priority 1992, dated 1994)
